Measured values taken from patent publication US10905122B2, “Use of tetrazolinones for combating resistant phytopathogenic fungi on cereals” (BASF SE, priority 2016, dated 2021).

Tests used:
Format in all cases: cell-based
[1] = tested on: QOI resistant isolate of Septoria tritici; assay: Microtiter test against leaf blotch on wheat, QOI resistant isolate of Septoria tritici; conditions: 63 ppm, absorption at 405 nm 7 days after inoculation, 18° C.
Description: (§1) Compound I according to the present invention is formulated separately as a stock solution having a concentration of 10000 ppm in dimethyl sulfoxide.
(§2) The stock solution of compound I according to the present invention was mixed according to the ratio, pipetted onto a micro titer plate and diluted with water to the stated concentrations. A spore suspension of a sensitive and a QOI resistant isolate of Septoria tritici in an aqueous biomalt or yeast-bactopeptone-glycerine solution was then added. The plates were placed in a water vapor-saturated chamber at a temperature of 18° C. Using an absorption photometer, the MTPs were measured at 405 nm 7 days after the inoculation.
(§3) Compound I according to the present invention and compound 1-213 from prior art (WO2013/092224) were formulated separately as a stock solution having a concentration of 10000 ppm in dimethyl sulfoxide. The stock solutions of compound I according to the present invention and compound 1-213 from prior art (WO2013/092224) were mixed according to the ratio, pipetted onto a micro titer plate and diluted with water to the stated concentrations. A spore suspension of a sensitive and a QOI resistant isolate of Septoria tritici in an aqueous biomalt or yeast-bactopeptone-glycerine solution was then added. […] Using an absorption photometer, the MTPs were measured at 405 nm 7 days after the inoculation.

[2] = tested on: QOI resistant isolate of Pyrenophora teres; assay: Microtiter test against net blotch, QOI resistant isolate of Pyrenophora teres; conditions: Example 1B; 63 ppm; absorption at 405 nm 7 days after inoculation; 18° C.
Excerpt: as §1
as §2, with “titer plate (MTP) and diluted” for “titer plate and diluted”, “isolate of Pyrenophora teres in an” for “isolate of Septoria tritici in an”

[3] = tested on: sensitive isolate of Pyrenophora teres; assay: Microtiter test against net blotch, sensitive isolate of Pyrenophora teres; conditions: Example 1B; 63 ppm; absorption at 405 nm 7 days after inoculation; 18° C.
Excerpt: as §1
as §2, with “titer plate (MTP) and diluted” for “titer plate and diluted”, “isolate of Pyrenophora teres in an” for “isolate of Septoria tritici in an”

[4] = tested on: sensitive isolate of Septoria tritici; assay: Microtiter test against leaf blotch on wheat, sensitive isolate of Septoria tritici; conditions: 63 ppm, absorption at 405 nm 7 days after inoculation, 18° C.
Description: as §1, §2, §3

SMILES: Cc1cccc(-n2nnn(C)c2=O)c1COc1ccn(-c2ccc(Cl)cc2)n1 [compound I, 1-[2-[[1-(4-chlorophenyl)pyrazol-3-yl]oxymethyl]-3-methyl-phenyl]-4-methyl-tetrazol-5-one]
- Growth (%) QOI resistant isolate of Septoria tritici ([1]; Example 1A): 3%
- Growth (%) QOI resistant isolate of Septoria tritici ([1]; Example 2 comparative): 3%
- Growth (%) QOI resistant isolate of Pyrenophora teres [2]: 6%
- Growth (%) sensitive isolate of Pyrenophora teres. [3]: 6%
- Growth (%) sensitive isolate of Septoria tritici ([4]; Example 1A): 0%
- Growth (%) sensitive isolate of Septoria tritici ([4]; Example 2 comparative): 0%
